# Tests used:
# [1] = biological target: Disintegrin and metalloproteinase domain-containing protein 17 (Homo sapiens, UniProt P78536); assay: TACE Assay; details: pH 9; 37 °C
# Method: Then, 15ng TACE was added to buffer solution containing 140μMTACE peptide substrate at a final volume of 50 μL. After incubation for 15 min at 37°C, the reaction was stopped with 25 μL of 1% TFA. An aliquot of 25μL of internal standard solution was then added and the solution mixture was analysed by HPLC.
# [2] = biological target: Matrix metalloproteinase-9 (Homo sapiens, UniProt P14780); assay: MMP-9 Assay; details: pH 7.5; 37 °C
# Sequence of Matrix metalloproteinase-9 (P14780 whole entry): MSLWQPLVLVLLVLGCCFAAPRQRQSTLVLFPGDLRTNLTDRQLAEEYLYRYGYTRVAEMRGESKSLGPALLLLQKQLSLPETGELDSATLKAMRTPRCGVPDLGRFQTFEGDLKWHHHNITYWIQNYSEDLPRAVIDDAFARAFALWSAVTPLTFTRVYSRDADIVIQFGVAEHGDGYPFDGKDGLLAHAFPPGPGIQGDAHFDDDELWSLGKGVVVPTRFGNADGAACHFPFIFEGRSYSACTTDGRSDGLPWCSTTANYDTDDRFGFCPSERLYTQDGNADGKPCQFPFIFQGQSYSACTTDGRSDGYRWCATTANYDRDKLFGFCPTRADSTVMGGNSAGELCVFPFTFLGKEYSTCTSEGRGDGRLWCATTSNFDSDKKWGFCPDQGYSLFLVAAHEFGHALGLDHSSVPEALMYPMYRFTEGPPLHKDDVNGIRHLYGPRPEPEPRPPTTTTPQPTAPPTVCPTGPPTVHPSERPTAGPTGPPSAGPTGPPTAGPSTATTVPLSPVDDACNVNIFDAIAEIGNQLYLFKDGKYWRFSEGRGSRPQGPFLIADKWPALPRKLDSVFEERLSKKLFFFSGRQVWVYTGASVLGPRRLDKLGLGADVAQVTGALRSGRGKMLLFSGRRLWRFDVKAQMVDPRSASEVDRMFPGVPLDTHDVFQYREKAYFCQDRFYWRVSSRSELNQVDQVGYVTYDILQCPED
# Method: The MMP-9 assay was performed in 50 mM Tris-HCl buffer (pH 7.5, 10mM CaCl2, 150mM NaCl, 0.05% Brij-35). […] After incubation for 25 min at 37°C, the reaction was stopped with 25 μL of 1% TFA. An aliquot of 25 μL internal standard solution was then added and the solution mixture was analysed by HPLC. […] After incubation for 30 min at 37°C, 2 μL of 3 nM MMP-9 substrate was added.
# Sequence of Disintegrin and metalloproteinase domain-containing protein 17 (P78536 whole entry, the tested form may be a part): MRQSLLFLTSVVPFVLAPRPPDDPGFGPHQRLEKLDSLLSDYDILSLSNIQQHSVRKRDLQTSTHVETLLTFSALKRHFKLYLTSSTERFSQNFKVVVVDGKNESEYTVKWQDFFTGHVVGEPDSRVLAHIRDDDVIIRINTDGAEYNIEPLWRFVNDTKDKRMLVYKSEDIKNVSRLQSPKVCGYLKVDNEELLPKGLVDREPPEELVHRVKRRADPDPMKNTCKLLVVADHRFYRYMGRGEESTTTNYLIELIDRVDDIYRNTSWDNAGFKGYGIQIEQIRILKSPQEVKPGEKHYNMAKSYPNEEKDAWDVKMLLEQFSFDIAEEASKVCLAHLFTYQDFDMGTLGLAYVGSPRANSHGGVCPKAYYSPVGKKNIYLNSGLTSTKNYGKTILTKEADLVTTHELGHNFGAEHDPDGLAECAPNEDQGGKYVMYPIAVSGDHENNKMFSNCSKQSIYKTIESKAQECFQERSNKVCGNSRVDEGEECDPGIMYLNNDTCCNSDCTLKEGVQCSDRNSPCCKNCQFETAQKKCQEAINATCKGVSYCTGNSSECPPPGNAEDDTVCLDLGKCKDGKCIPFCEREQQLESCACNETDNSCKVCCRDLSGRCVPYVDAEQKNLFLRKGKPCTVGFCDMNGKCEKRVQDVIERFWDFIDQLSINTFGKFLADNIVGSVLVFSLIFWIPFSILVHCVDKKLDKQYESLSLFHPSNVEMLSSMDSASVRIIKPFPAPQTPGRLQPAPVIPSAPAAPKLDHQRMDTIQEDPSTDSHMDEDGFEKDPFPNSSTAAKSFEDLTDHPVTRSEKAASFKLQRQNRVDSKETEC
SMILES,IC50 [1] [µM],IC50 [2] [µM]
O=C(Cc1cc2ccccc2oc1=O)NO [Inhibitor A],0.175,0.537
CNC(=O)[C@H](Cc1c[nH]c2ccccc12)NC(=O)[C@@H](CC(=O)NO)CC(C)C [GM6001],0.317,–

# Reference: BindingDB's records for doi:10.3109/14756366.2010.487485 (Huazhong University of Science and Technology, 2011)
